Data set [1] deals with human prostate cancer cells LNCaP. The data set is described as follows: XXT cell viability assay, 72 hours. The class given is cell-based. As to the method:
After 72 hours, an XXT assay (Scudievo, et al., Cancer Research, 48:4827 (1988)) indicating cell viability was carried out.

The next data set concerns the target T1, androgen receptor (Homo sapiens, UniProt P10275, T878A).
T1 construct: endogenous in cells; host or cells: LNCaP human prostate cancer cells
The data set is described as follows: Androgen receptor remaining in LNCaP cell lysate, Western Blot. The class given is cell-based. The following applies: for Percent Androgen Receptor Remaining / Percent of the androgen receptor remaining / Effect on the AR: LNCaP; for Percent Androgen Receptor Remaining: Table 7 controls, incubation time not given; for Percent of the androgen receptor remaining: 48 hours; for Effect on the AR: Western Blot; for Suppression of the AR: 3 μM concentration; for Elimination of the AR: 10 μM concentration. As to the method:
The interaction of the compounds with AR was studied by incubation with LNCaP cells, subsequent cell lysis and the standard Western Blot assay.

Data set [2] in a line: Systemic toxicity, repeated i.p. injection in mice. It counts as in vivo. As to the method:
Systemic toxicity was orientationally evaluated by i.p. injection every 2nd day in mice. […] For BP-34, the corresponding values were 150 mg/kg bw and 300 mg/kg bw.
The maximum tolerated dose should thus be approximately 300 mg/kg. For BP-34, i.p. injections of 100-300 mg/kg produce no mortalities in mice. […] Therefore, the maximum tolerated dose of BP-34 should be approximately 250 mg/kg.

Data set [3] in a line: Tissue distribution 4 hours after intravenous injection in male rats. To be noted: 300 g male rats, after 4 hours.
For data set [4] the following is noted: 38° C., 0.5 mg/mL. As to the method: Compounds were tested for stability in human serum at 38° C. They were dissolved in isopropanol/H2O (95:5), mixed with human serum to a concentration of 0.5 mg/mL, and incubated at 38° C. Serum aliquots were extracted with ethyl acetate and analyzed by HPLC.
(Permadi, H.; Lundgren, B.; Andersson, K.; Sundberg, C.; DePierre, J. W. Effects of perfluoro fatty acids on peroxisome proliferation and mitochondrial size in mouse liver: dose and time factors and effect of chain length. Xenobiotica, 91993) Vol. 23, No. 7, pp.761-70).

In data set [5] the test system is prostate and seminal vesicles. Put plainly: Weight of prostate and seminal vesicles (secondary sex organs) in rats. It counts as in vivo. To be noted: castrated rats supplemented with testosterone propionate.
Protocol: (The dose of 0.1 mg/kg approximates the expected topical daily dose for humans).
For data set [6] the following is noted: isopropanol/H2O (95:5), 50° C., up to six days.
The conditions of data set [7]: Cockshott et al. 1990; cited from earlier work.

Each structure is given as a SMILES string. Entries after “also recorded” stand apart in the source; their conditions may differ. Read-outs that look alike come from different tables or passages of the source.

T1 sequence (P10275 whole entry T878A): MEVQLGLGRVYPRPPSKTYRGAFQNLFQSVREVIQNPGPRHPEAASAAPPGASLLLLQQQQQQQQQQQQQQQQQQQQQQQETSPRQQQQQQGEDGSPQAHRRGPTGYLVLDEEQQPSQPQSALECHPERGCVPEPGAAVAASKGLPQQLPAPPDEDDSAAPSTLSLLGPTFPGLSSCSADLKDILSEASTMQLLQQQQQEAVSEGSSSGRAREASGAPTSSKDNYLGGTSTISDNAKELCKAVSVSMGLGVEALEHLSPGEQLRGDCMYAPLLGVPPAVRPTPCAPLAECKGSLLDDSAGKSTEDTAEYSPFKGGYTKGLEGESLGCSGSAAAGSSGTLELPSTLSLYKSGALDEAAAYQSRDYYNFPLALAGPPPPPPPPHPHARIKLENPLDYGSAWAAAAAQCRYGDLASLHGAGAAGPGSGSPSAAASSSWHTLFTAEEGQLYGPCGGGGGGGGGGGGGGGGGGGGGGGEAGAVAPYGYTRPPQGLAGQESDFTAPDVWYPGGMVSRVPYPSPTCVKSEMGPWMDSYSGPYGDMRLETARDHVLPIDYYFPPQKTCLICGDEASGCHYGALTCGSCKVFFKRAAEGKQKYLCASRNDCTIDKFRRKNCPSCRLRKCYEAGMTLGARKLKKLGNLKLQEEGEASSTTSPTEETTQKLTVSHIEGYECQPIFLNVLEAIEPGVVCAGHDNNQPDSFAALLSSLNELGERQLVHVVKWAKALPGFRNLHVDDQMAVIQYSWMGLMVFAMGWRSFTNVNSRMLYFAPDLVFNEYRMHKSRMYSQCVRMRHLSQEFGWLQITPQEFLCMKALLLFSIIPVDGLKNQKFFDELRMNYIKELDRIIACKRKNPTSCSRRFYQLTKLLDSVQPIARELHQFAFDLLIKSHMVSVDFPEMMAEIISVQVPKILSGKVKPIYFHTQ

In the case of `CC(O)(CNCC(C)(O)C(=O)Nc1ccc(Cl)cc1)C(=O)Nc1ccc(Cl)cc1` (centres unmarked), the melting point fell in the range of 76 to 78 °C.
Take `CC(O)(CN)C(=O)Nc1ccc([N+](=O)[O-])c(C(F)(F)F)c1` (centres unmarked) [BP-34, 4-nitro-3-trifluoromethyl-N-(2-hydroxy-2-methyl-3-aminopropionyl)aniline]: the “Effect on the LNCaP cells” value in [1] is reported as “no effect”. Besides, the “Percent Androgen Receptor Remaining” value at androgen receptor (3μ Molar conc) was found to be 97%; at androgen receptor (10μ Molar conc), 98%. The entries for the “Percent of the androgen receptor remaining” value on androgen receptor (3μ Molar conc.) and at androgen receptor (10μ Molar conc.) were 97% and 98%, respectively. Moreover, at androgen receptor, the “Effect on the AR” value is given as “no effect”. For the same molecule, the “Dose with morbidity, but not mortality” value in data set [2] (i.p.) came out at 300 mg/kg. In data set [2] (i.p.), the “i.p. doses producing no mortalities” value lay in the range of 100 to 300 mg/kg. Besides, in data set [2] (i.p. every 2nd day), the “Dose with morbidity but no mortality” value is on record as 300 mg/kg bw. The “Dose given without mortality or morbidity” value in data set [2] (i.p. every 2nd day, 5 times) came out at 150 mg/kg bw. The MTD in [2] (mouse, in vivo, ip, read-out: Maximum tolerated dose) was about 250 mg/kg.
In the case of `CC(O)(CSCC=C([125I])[125I])C(=O)Nc1ccc(C#N)c(C(F)(F)F)c1` (centres unmarked) [BP-554], the “Accumulation in the prostate vis-a-vis other tissues” value in [3] was “substantial accumulation in the prostate”.
Still for that read-out and setting: the same measure for `CC(O)(COC/C=C/[125I])C(=O)Nc1ccc(C#N)c(C(F)(F)F)c1` (centres unmarked) [BP-636]: “substantial accumulation in the prostate”.
`CC(O)(CNC(=S)Nc1ccc(Br)cc1)C(=O)Nc1ccc([N+](=O)[O-])c(C(F)(F)F)c1` (centres unmarked) [BP-668, 3-((((4-bromophenyl)amino)thioxomethyl)amino)-2-hydroxy-2-methyl-N-(4-nitro-3-(trifluoromethyl)phenyl)propanamide] registered a melting point of 192 to 195 °C. In [4] (24 h), the “Percent of the intact compound remaining in human serum” value worked out at 100%. Also, the “Percent of the intact compound remaining in human serum” value in [4] (48 h) is recorded as 100%. Moreover, in data set [4] (6 d), the “Percent of the intact compound remaining in human serum” value worked out at 100%. For the same molecule, at androgen receptor, the “Suppression of the AR” value is recorded as “important suppression” and the “Elimination of the AR” value was “practically eliminated the AR”. Further, the “Percent of the androgen receptor remaining” value on androgen receptor (3μ Molar conc.) amounted to 73%. Moreover, the “Percent of the androgen receptor remaining” value on androgen receptor (10μ Molar conc.) was 0%. Also, the “Reduction of secondary sex organs' weight” value in data set [5] (0.1 mg/kg) is listed as “did not reduce”. In addition, the “Change via HPLC in accelerated stability study” value in [6] was “no change was observed”.
As to `CC(O)(CNCC(C)(O)C(=O)Nc1ccc([N+](=O)[O-])c(C(F)(F)F)c1)C(=O)Nc1ccc([N+](=O)[O-])c(C(F)(F)F)c1` (centres unmarked) [BP-673, 2-hydroxy-3-((2-hydroxy-2-(N-(4-nitro-3-(trifluoromethyl)phenyl)carbamoyl)propyl)amino)-2-methyl-N-(4-nitro-3-(trifluoromethyl)phenyl)propionamide], the “Percent of the intact compound remaining in human serum” value in data set [4] (24 h), in data set [4] (48 h) and in [4] (6 d) was 100% each time. For the same molecule, the “Suppression of the AR” value on androgen receptor is listed as “important suppression”. At androgen receptor, the “Elimination of the AR” value was “practically eliminated the AR”. In addition, the results for the “Percent of the androgen receptor remaining” value at androgen receptor (3μ Molar conc.) and at androgen receptor (10μ Molar conc.) were 74% and 3%, respectively. For the same molecule, in data set [6], the “Change via HPLC in accelerated stability study” value was “no change was observed”.
Turning to `CC(O)(CNCCOCCOCCNCC(C)(O)C(=O)Nc1ccc([N+](=O)[O-])c(C(F)(F)F)c1)C(=O)Nc1ccc([N+](=O)[O-])c(C(F)(F)F)c1` (centres unmarked) [BP-676], the “Percent of the androgen receptor remaining” value was found to be 64% on androgen receptor (3μ Molar conc.) and 20% on androgen receptor (10μ Molar conc.).
For the molecule `CCCNC(=S)Nc1ccc(C#N)c(C(F)(F)F)c1` [BP-735, N-(3-trifluoromethyl-4-cyanophenyl), N′-propyl thiourea], at androgen receptor, the “Suppression of the AR” value is listed as “important suppression” and the “Elimination of the AR” value was “practically eliminated the AR”. For the same molecule, the “Percent of the androgen receptor remaining” value on androgen receptor (3μ Molar conc.) was determined as 45%. Further, at androgen receptor (10μ Molar conc.), the “Percent of the androgen receptor remaining” value turned out to be 1%.
Regarding `CC(O)(CNC(=O)Nc1ccc(I)cc1)C(=O)Nc1ccc([N+](=O)[O-])c(C(F)(F)F)c1` (centres unmarked) [BP-754], the “Percent of the androgen receptor remaining” value on androgen receptor (3μ Molar conc.) came out at 28%; on androgen receptor (10μ Molar conc.), 14%.
With `CC(O)(CS(=O)(=O)c1ccc(F)cc1)C(=O)Nc1ccc(C#N)c(C(F)(F)F)c1` (centres unmarked) [Bicalutamide, reference compound], the “Reduction of secondary sex organs' weight” value in data set [5] (0.5 mg/kg) is “about 20%”. Also, in data set [7], the “Peak serum levels as % of the dose, reported” value is on record as 0.03%.
For the molecule `CC(C)(O)C(=O)Nc1ccc([N+](=O)[O-])c(C(F)(F)F)c1` [Hydroxyflutamide, reference compound], the “Percent Androgen Receptor Remaining” value at androgen receptor (3μ Molar conc) worked out at 98%; at androgen receptor (10μ Molar conc), 94%. Further, the “Percent of the androgen receptor remaining” value at androgen receptor (3μ Molar conc.) worked out at 98%; on androgen receptor (10μ Molar conc.), 94%. Besides, the “Effect on the AR” value at androgen receptor is listed as “have not shown any significant effect on the AR; also recorded: have not shown any significant suppression of the AR”.

The record behind these values is patent publication US6472415B1, “Androgen receptor suppressors in the therapy and diagnosis of prostate cancer, alopecia and other hyper-androgenic syndromes” (priority 1998, dated 2002).
